Test results taken from patent US20230065814A1, “CONJUGATES OF-ELECTRON-PAIR-DONATING HETEROAROMATIC NITROGEN-COMPRISING COMPOUNDS” (Ascendis Pharma A/S, priority 2019, published 2023).

Assay: In vitro release kinetics (Example 59): cleavage rate of the reversible bond at 37° C. in aqueous buffer, conditions A-F
Type: physicochemical
Details: aqueous sodium phosphate buffer, pH 7.4
Description: The cleavage rate of the reversible bond from conjugates 9a-d, 13a-e and 17b-q was monitored at 37° C. in aqueous buffer (condition A: pH 7.4 60 mM sodium phosphate, 1% acetonitrile, B: pH 7.4 48 mM sodium phosphate, 20% acetonitrile, 0.1% Pluronic F68, C: pH 7.4 48 mM sodium phosphate with 16 mM L-Methionine 2.4 mM EDTA, 0.1% pluronic and 20% acetonitrile, D: pH 7.0 48 mM sodium phosphate with 16 mM L-Methionine 2.4 mM EDTA, 0.1% pluronic and 20% acetonitrile, E: pH 7.4 60 mM sodium phosphate, F: pH 7.4 48 mM sodium phosphate, 20% acetonitrile). For soluble examples disappearance of the conjugate was determined by LCMS (UV detection) and fitted with curve fitting software to obtain the half-life of the release. For insoluble examples (hydrogels) the increase in released axitinib in the supernatant was determined by LCMS (UV detection) and used as input for the curve fitting software to obtain the half-life of the release. Release rates at pH 7.4 for conjugates only incubated at pH 7.0 are estimated to increase by a factor of 2 to 3.
The compounds marked with “*” are not in accordance with the present invention as they were for efficiency reasons not linked to a moiety Z. Nevertheless, they show the release half-lives of such moieties -L^1-.

half-life [h]	Compound
96	CCN(CC(=O)NCCC(=O)O)C(=O)n1nc(/C=C/c2ccccn2)c2ccc(Sc3ccccc3C(=O)NC)cc21 [Compound 9a]
276	CNC(=O)c1ccccc1Sc1ccc2c(/C=C/c3ccccn3)nn(C(=O)N(C)CC(=O)N[C@@H](C)CC(=O)O)c2c1 [Compound 9b]
1130	CNC(=O)c1ccccc1Sc1ccc2c(/C=C/c3ccccn3)nn(C(=O)N(C)CC(=O)N[C@H](C(=O)O)C(C)C)c2c1 [Compound 9c]
101	C[C@@H](CC(=O)N(C)CCC(=O)O)NC(=O)CN(C)C(=O)n1nc(C(=O)O)c2ccccc21 [Compound 13a]
86.4	C[C@@H](CC(=O)O)NC(=O)C[C@H](C)NC(=O)CN(C)C(=O)n1nc(C(=O)O)c2ccccc21 [Compound 13b]
166	C[C@@H](CCC(=O)NCCCCCC(=O)O)NC(=O)CN(C)C(=O)n1nc(C(=O)O)c2ccccc21 [Compound 13c]
76.8	CCN(CC(=O)NCCOCCOCC(=O)O)C(=O)n1nc(C(=O)O)c2ccccc21 [Compound 13d]
108	O=C(O)CCCCCNC(=O)CONC(=O)CNC(=O)n1nc(C(=O)O)c2ccccc21 [Compound 13e]

Compound	half-life [h]
CCN(CC(=O)NCCCCCC(=O)O)C(=O)n1nc(/C=C/c2ccccn2)c2ccc(Sc3ccccc3C(=O)NC)cc21 [Compound 9d]	110

Assay: In vitro release kinetics (Example 69): cleavage rate of the reversible bond at pH 7.4 and 37° C. in aqueous buffer
Type: physicochemical
Details: aqueous sodium phosphate buffer
Description: The cleavage rate of the reversible bond from conjugates 18, 20, 23 was monitored at pH 7.4 and 37° C. in aqueous buffer (pH 7.4 48 mM sodium phosphate, 20% acetonitrile). Disappearance of the conjugate was determined by LCMS (UV detection) and fitted with curve fitting software to obtain the half-life of the release.

half-life [h]	Compound
40.8	CC(CCCCC(=O)O)NC(=O)CN(C)C(=O)n1ccnc1 (stereo not shown) [Compound 18]
43.2	COC(=O)c1ccc2ncn(C(=O)N(C)CC(=O)NC(C)CCCCC(=O)O)c2c1 (stereo not shown) [Compound 20]
744	CN(C)CCN(C)C(=O)n1ccc2cc(C(=O)O)ccc21 [Compound 23]

Assay: In vitro release kinetics (Example 34): cleavage rate of the reversible bond at pH 7.4 and 37° C. in aqueous buffer
Type: physicochemical
Details: aqueous sodium phosphate buffer, read-out: t1/2 (pH 7.4) (converted)
Description: For soluble examples disappearance of the conjugate was determined by LCMS (UV detection) and fitted with curve fitting software to obtain the preliminary half-life of the release. For insoluble examples (hydrogels) the increase in released heteroaromatic moiety containing molecule in the supernatant was determined by LCMS (UV detection) and used as input for the curve fitting software to obtain the preliminary half-life of the release.
Compounds marked with “**” were synthesized for comparison.

Compound	half-life [days]
CNCCNC(=O)[C@H](CC(=O)n1ncc2ccccc21)N(C)C(=O)CCCCCS(=O)(=O)O [1 h]	< 0.000694
CCCCOC(=O)n1nc(C(=O)O)c2ccccc21 [Compound 6a]	21
CCCC(C)OC(=O)n1nc(C(=O)O)c2ccccc21 (stereo not shown) [Compound 6b]	99
CC(C)(C)OC(=O)n1nc(C(=O)O)c2ccccc21 [Compound 6c]	0.0833
CC(CCC(=O)NCCC(=O)O)OC(=O)n1nc(C(=O)O)c2ccccc21 (stereo not shown) [Compound 6d]	36
CC(=O)N[C@H](C(=O)O)[C@H](C)OC(=O)n1nc(C(=O)O)c2ccccc21 [Compound 6e]	1
O=C(O)CCNC(=O)[C@H]1CC[C@H](OC(=O)n2nc(C(=O)O)c3ccccc32)CC1 [Compound 6f]	39
CCCNC(=O)CN(C)C(=O)n1nc(C(=O)O)c2ccccc21 [Compound 7a]	3.5
CCC(C)NC(=O)CN(C)C(=O)n1nc(C(=O)O)c2ccccc21 (stereo not shown) [Compound 7b]	17
CC(C)[C@H](NC(=O)CN(C)C(=O)n1nc(C(=O)O)c2ccccc21)C(=O)O [Compound 7c]	> 180
CCCNC(=O)CCN(C)C(=O)n1nc(C(=O)O)c2ccccc21 [Compound 7d]	> 180
CCN(CC(=O)NC(C)CCCCC(=O)O)C(=O)n1nc(C(=O)O)c2ccccc21 (stereo not shown) [Compound 7e]	52
CCN(CC(=O)NCCCCCC(=O)O)C(=O)n1nc(C(=O)O)c2ccccc21 [Compound 7f]	9.6
CCN(CC(=O)NCCC(=O)O)C(=O)n1nc(C(=O)O)c2ccccc21 [Compound 7g]	7.7
CCCNC(=O)CN(CC)C(=O)n1nc(C(=O)O)c2ccccc21 [Compound 7h]	8.1
CCCNC(=O)n1nc(C(=O)O)c2ccccc21 [Compound 7i]	> 180
CN(C)CCN(C)C(=O)n1nc(C(=O)O)c2ccccc21 [Compound 7j]	0.121
CN(C)CCCN(C)C(=O)n1nc(C(=O)O)c2ccccc21 [Compound 7k]	164

Results, then the molecule that gave them:

half-life [days]	Compound
2.4	C[C@@H](CC(=O)NCCCCCC(=O)O)NC(=O)CN(C)C(=O)n1nc(C(=O)O)c2ccccc21 [Compound 8a]
0.342	C[C@H](NC(=O)CN(C)C(=O)n1nc(C(=O)O)c2ccccc21)C(=O)NCCCCCC(=O)O [Compound 8b]
13	C[C@@H](C(=O)NCCCCCC(=O)O)N(C)C(=O)n1nc(C(=O)O)c2ccccc21 [Compound 8c]
12	O=C(O)CCCCCNC(=O)[C@@H]1CCCN1C(=O)n1nc(C(=O)O)c2ccccc21 [Compound 8d]
